Here are results for 33 compounds from patent US9303016B2, “Derivatives of aza adamantane and uses thereof” (CONNEXIOS LIFE SCIENCES PVT. LTD., priority 2011, dated 2016).

The test concerns the target T1, human full length HSD11β1 (Homo sapiens, UniProt P28845).
T1 construct: transient expression of human full length HSD11β1 expression vector; host or cells: CHO cells, transient transfection
Nature of the test: In Vitro HSD11β1 Inhibition Assay. The class given is cell-based. The note with it: CHO cells transiently expressing human HSD11β1; 200 nM cortisone+500 uM NADPH overnight; cortisone to cortisol by LC/MS-MS; read-out: 11βHSD1 (IC50). The procedure:
In Vitro HSD11β1 Inhibition Assay:
CHO cells were maintained in Dulbecco's modified Eagle's medium/nutrient mixture F-12 containing 5% fetal bovine serum (v/v) and 2 mM glutamine. Cells were cultured at 37° C. with 5% CO2. For transient expression of human full length HSD11β1 expression vector (OriGene Technologies), cells were seeded at a density of 2×10^5 cells/well in a 6-well plate. Transfection was done using Turbofectin8 reagent (OriGene Technologies), according to the protocol provided with the reagent. After 24 hours post-transfection, cells were trypsinized and pooled together before they were re-seeding to 96-well plate at a density of 40000 cells/well. 24 hours after re-seeding, cells were incubated with 200 nM cortisone+500 uM NADPH (or along with small molecule inhibitors) overnight. The enzymatic activity or inhibition of enzyme activity was measured by estimating the conversion of cortisone to cortisol by LC/MS-MS method. The IC50 in nM was calculated from a 8 point log scale of concentration versus inhibition.

By IC50 is commonly meant the concentration at which inhibition is half-maximal.

T1 sequence (P28845 whole entry): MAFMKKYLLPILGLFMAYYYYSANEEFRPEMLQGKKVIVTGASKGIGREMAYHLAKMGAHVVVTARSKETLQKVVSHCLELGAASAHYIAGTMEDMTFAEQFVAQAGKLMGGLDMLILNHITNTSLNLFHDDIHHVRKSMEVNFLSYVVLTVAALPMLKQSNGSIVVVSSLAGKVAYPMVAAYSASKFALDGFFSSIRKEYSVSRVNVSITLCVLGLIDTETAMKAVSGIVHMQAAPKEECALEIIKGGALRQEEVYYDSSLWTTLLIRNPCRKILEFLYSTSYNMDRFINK

Regarding `Cc1cccc2[nH]cc(C(CC(=O)N3C4CC5CC3CC(O)(C5)C4)c3ccc(F)cc3)c12` (stereo not drawn) [Compound 93, 3-(4-fluorophenyl)-1-(5-hydroxy-2-azatricyclo[3.3.1.1^3,7]dec-2-yl)-3-(4-methyl-1H-indol-3-yl)propan-1-one], the IC50 is greater than 250 nM. Consider `O=C(CC(c1ccccc1)c1c[nH]c2cc(F)ccc12)N1C2CC3CC1CC(O)(C3)C2` (stereo not drawn) [Compound 94, 3-(6-fluoro-1H-indol-3-yl)-1-(5-hydroxy-2-azatricyclo[3.3.1.1^3,7]dec-2-yl)-3-phenylpropan-1-one], for which the IC50 is less than 100 nM.

On to `O=C(CC(c1c[nH]c2cccc(F)c12)C1CC1)N1C2CC3CC1CC(O)(C3)C2` (stereo not drawn) [Compound 95, 3-cyclopropyl-3-(4-fluoro-1H-indol-3-yl)-1-(5-hydroxy-2-azatricyclo[3.3.1.1^3,7]dec-2-yl)propan-1-one], for which the IC50 was 100 to 150 nM. Under `O=C(CC(c1ccc(F)cc1F)c1c[nH]c2ccccc12)N1C2CC3CC1CC(O)(C3)C2` (stereo not drawn) [Compound 96, 3-(2,4-difluorophenyl)-1-(5-hydroxy-2-azatricyclo[3.3.1.1^3,7]dec-2-yl)-3-(1H-indol-3-yl)propan-1-one] stands 100 to 150 nM; under `O=C(CC(c1ccc(F)cc1)c1c[nH]c2cccc(F)c12)N1C2CC3CC1CC(O)(C3)C2` (stereo not drawn) [Compound 99, 3-(4-fluoro-1H-indol-3-yl)-3-(4-fluorophenyl)-1-(5-hydroxy-2-azatricyclo[3.3.1.1^3,7]dec-2-yl)propan-1-one], less than 100 nM. Under `Cc1cccc2[nH]cc(C(C)CC(=O)N3C4CC5CC3CC(F)(C5)C4)c12` (stereo not drawn) [Compound 104, 1-(5-fluoro-2-azatricyclo[3.3.1.1^3,7]dec-2-yl)-3-(4-methyl-1H-indol-3-yl)butan-1-one] stands less than 100 nM; under `CC(CC(=O)N1C2CC3CC(C2)CC1C3)c1nc2ccccc2s1` (stereo not drawn) [Compound 105, 1-(2-azatricyclo[3.3.1.1^3,7]dec-2-yl)-3-(1,3-benzothiazol-2-yl)butan-1-one], less than 100 nM. In the case of `CC(CC(=O)N1C2CC3CC1CC(F)(C3)C2)c1nc2ccccc2s1` (stereo not drawn) [Compound 106, 3-(1,3-benzothiazol-2-yl)-1-(5-fluoro-2-azatricyclo[3.3.1.1^3,7]dec-2-yl)butan-1-one], the half-maximal inhibitory concentration (IC50) fell in the range of 100 to 150 nM. Consider `O=C(CC(c1ccccc1)c1nc2ccccc2s1)N1C2CC3CC1CC(O)(C3)C2` (stereo not drawn) [Compound 107, 3-(1,3-benzothiazol-2-yl)-1-(5-hydroxy-2-azatricyclo[3.3.1.1^3,7]dec-2-yl)-3-phenylpropan-1-one], for which the IC50 was greater than 250 nM. `O=C(CC(c1ccccc1)c1nc2ccccc2s1)N1C2CC3CC1CC(F)(C3)C2` (stereo not drawn) [Compound 108, 3-(1,3-benzothiazol-2-yl)-1-(5-fluoro-2-azatricyclo[3.3.1.1^3,7]dec-2-yl)-3-phenylpropan-1-one]: the IC50 was greater than 250 nM. For `COc1ccc2[nH]cc(C(C)CC(=O)N3C4CC5CC3CC(O)(C5)C4)c2c1` (stereo not drawn) [Compound 109, 1-(5-hydroxy-2-azatricyclo[3.3.1.1^3,7]dec-2-yl)-3-(5-methoxy-1H-indol-3-yl)butan-1-one] the value was greater than 250 nM; for `Cc1ccc2[nH]cc(C(C)CC(=O)N3C4CC5CC3CC(O)(C5)C4)c2c1` (stereo not drawn) [Compound 110, 1-(5-hydroxy-2-azatricyclo[3.3.1.1^3,7]dec-2-yl)-3-(5-methyl-1H-indol-3-yl)butan-1-one], greater than 250 nM. On to `O=C(CC(c1ccccc1)c1c[nH]c2cccc(F)c12)N1C2CC3CC1CC(C(=O)O)(C3)C2` (stereo not drawn) [Compound 111, 2-[3-(4-fluoro-1H-indol-3-yl)-3-phenylpropanoyl]-2-azatricyclo[3.3.1.1^3,7]decane-5-carboxylic acid], for which the half-inhibitory concentration (IC50) is greater than 250 nM. Take `O=C(CC(c1ccccc1)c1c[nH]c2cc(F)ccc12)N1C2CC3CC1CC(C(=O)O)(C3)C2` (stereo not drawn) [Compound 112, 2-[3-(6-fluoro-1H-indol-3-yl)-3-phenylpropanoyl]-2-azatricyclo[3.3.1.1^3,7]decane-5-carboxylic acid]: the IC50 was 200 to 250 nM. Turning to `Cc1[nH]c2ccc(F)cc2c1C(C)CC(=O)N1C2CC3CC1CC(O)(C3)C2` (stereo not drawn) [Compound 113, 3-(5-fluoro-2-methyl-1H-indol-3-yl)-1-(5-hydroxy-2-azatricyclo[3.3.1.1^3,7]dec-2-yl)butan-1-one], the IC50 was greater than 250 nM.

As to `Cc1cccc2[nH]cc(CCC(=O)N3C4CC5CC3CC(O)(C5)C4)c12` [Compound 116, 1-(5-hydroxy-2-azatricyclo[3.3.1.1^3,7]dec-2-yl)-3-(4-methyl-1H-indol-3-yl)propan-1-one], the half-maximal inhibitory concentration (IC50) lay within 200 to 250 nM.

On to `COc1cc2c(C(C)CC(=O)N3C4CC5CC3CC(O)(C5)C4)c[nH]c2cc1Cl` (stereo not drawn) [Compound 117, 3-(6-chloro-5-methoxy-1H-indol-3-yl)-1-(5-hydroxy-2-azatricyclo[3.3.1.1^3,7]dec-2-yl)butan-1-one], for which the IC50 is greater than 250 nM. Under `CC(CC(=O)N1C2CC3CC1CC(C#N)(C3)C2)c1nc2ccccc2s1` (stereo not drawn) [Compound 118, 2-[3-(1,3-benzothiazol-2-yl)butanoyl]-2-azatricyclo[3.3.1.1^3,7]decane-5-carbonitrile] stands greater than 250 nM; under `CC(CC(=O)N1C2CC3CC(C2)CC1C3)c1nc2c(Cl)cccc2s1` (stereo not drawn) [Compound 119, 1-(2-azatricyclo[3.3.1.1^3,7]dec-2-yl)-3-(4-chloro-1,3-benzothiazol-2-yl)butan-1-one], less than 100 nM; under `CC(CC(=O)N1C2CC3CC1CC(O)(C3)C2)c1nc2c(Cl)cccc2s1` (stereo not drawn) [Compound 120, 3-(4-chloro-1,3-benzothiazol-2-yl)-1-(5-hydroxy-2-azatricyclo[3.3.1.1^3,7]dec-2-yl)butan-1-one], greater than 250 nM. For `O=C(CC(c1ccccc1)n1nnc2ccccc21)N1C2CC3CC1CC(O)(C3)C2` (stereo not drawn) [Compound 121, 3-(1H-benzotriazol-1-yl)-1-(5-hydroxy-2-azatricyclo[3.3.1.1^3,7]dec-2-yl)-3-phenylpropan-1-one], the IC50 is greater than 250 nM. For `O=C(O)C1C2CC3CC(C2)N(C(=O)CC(c2cccs2)c2c[nH]c4cccc(F)c24)C1C3` (stereo not drawn) [Compound 122, 2-[3-(4-fluoro-1H-indol-3-yl)-3-(thiophen-2-yl)propanoyl]-2-azatricyclo[3.3.1.1^3,7]decane-4-carboxylic acid] the value was greater than 250 nM; for `CC(CC(=O)N1C2CC3CC1CC(C#N)(C3)C2)c1nc2c(Cl)cccc2s1` (stereo not drawn) [Compound 123, 2-[3-(4-chloro-1,3-benzothiazol-2-yl)butanoyl]-2-azatricyclo[3.3.1.1^3,7]decane-5-carbonitrile], greater than 250 nM; for `O=C(CCc1c[nH]c2cccc(C3CC3)c12)N1C2CC3CC1CC(O)(C3)C2` [Compound 126, 3-(4-cyclopropyl-1H-indol-3-yl)-1-(5-hydroxy-2-azatricyclo[3.3.1.1^3,7]dec-2-yl)propan-1-one], less than 100 nM. Under `O=C(CC(c1cccs1)c1c[nH]c2cccc(F)c12)N1C2CC3CC1CC(O)(C3)C2` (stereo not drawn) [Compound 127, 3-(4-fluoro-1H-indol-3-yl)-1-(5-hydroxy-2-azatricyclo[3.3.1.1^3,7]dec-2-yl)-3-(thiophen-2-yl)propan-1-one] stands less than 100 nM. For `CCCc1cccc2[nH]cc(CCC(=O)N3C4CC5CC3CC(O)(C5)C4)c12` [Compound 128, 1-(5-hydroxy-2-azatricyclo[3.3.1.1^3,7]dec-2-yl)-3-(4-propyl-1H-indol-3-yl)propan-1-one] the value was greater than 250 nM; for `Cc1cccc2c1nnn2C(CC(=O)N1C2CC3CC1CC(O)(C3)C2)C(C)C` (stereo not drawn) [Compound 131, 1-(5-hydroxy-2-azatricyclo[3.3.1.1^3,7]dec-2-yl)-4-methyl-3-(4-methyl-1H-benzotriazol-1-yl)pentan-1-one], greater than 250 nM. With `CC(CC(=O)N1C2CC3CC1CC(O)(C3)C2)c1c[nH]c2nccc(C3CC3)c12` (stereo not drawn) [Compound 132, 3-(4-cyclopropyl-1H-pyrrolo[2,3-b]pyridin-3-yl)-1-(5-hydroxy-2-azatricyclo[3.3.1.1^3,7]dec-2-yl)butan-1-one], the IC50 was less than 100 nM. On to `CC(CC(=O)N1C2CC3CC1CC(O)(C3)C2)c1c[nH]c2cc(Cl)c(F)cc12` (stereo not drawn) [Compound 133, 3-(6-chloro-5-fluoro-1H-indol-3-yl)-1-(5-hydroxy-2-azatricyclo[3.3.1.1^3,7]dec-2-yl)butan-1-one], for which the IC50 is 100 to 150 nM.

With `O=C(CC(c1ccccc1)c1c[nH]c2cc(Cl)ccc12)N1C2CC3CC1CC(C(=O)O)(C3)C2` (stereo not drawn) [Compound 134, 2-[3-(6-chloro-1H-indol-3-yl)-3-phenylpropanoyl]-2-azatricyclo[3.3.1.1^3,7]decane-5-carboxylic acid], the IC50 was 150 to 200 nM. For `CC(CC(=O)N1C2CC3CC1CC(O)(C3)C2)c1c[nH]c2ncc(Cl)cc12` (stereo not drawn) [Compound 135, 3-(5-chloro-1H-pyrrolo[2,3-b]pyridin-3-yl)-1-(5-hydroxy-2-azatricyclo[3.3.1.1^3,7]dec-2-yl)butan-1-one], the 50% inhibitory concentration (IC50) is greater than 250 nM. In the case of `CC(CC(=O)N1C2CC3CC1CC(C#N)(C3)C2)c1c[nH]c2nccc(C3CC3)c12` (stereo not drawn) [Compound 136, 2-[3-(4-cyclopropyl-1H-pyrrolo[2,3-b]pyridin-3-yl)butanoyl]-2-azatricyclo[3.3.1.1^3,7]decane-5-carbonitrile], the IC50 is less than 100 nM. Consider `CC(CC(=O)N1C2CC3CC1CC(C#N)(C3)C2)c1c[nH]c2ncc(Cl)cc12` (stereo not drawn) [Compound 137, 2-[3-(6-chloro-1H-pyrrolo[2,3-b]pyridin-3-yl)butanoyl]-2-azatricyclo[3.3.1.1^3,7′]decane-5-carbonitrile], for which the IC50 was greater than 250 nM.
